Experimental data published in patent publication US5852014A, “Condensed indole derivatives as 5HT4 -receptor antagonists” (SmithKline Beecham p.l.c., priority 1992, dated 1998).

Columns and labels:
[1] = biological target: piglet hippocampal 5-HT4 receptors (Sus scrofa, UniProt Q6Q253); experiment: Binding to piglet hippocampal 5-HT4 receptors (125I-SB-207710); settings: for pKi: inhibition of 125I-SB-207710 binding in hippocampus
[2] = system: large bowel motility and fluid secretion; experiment: Faecal pellet output and fluid content in conscious fed mice (normal and 5-HTP-treated); format: in vivo, mouse
Source text: 2) Antagonism in Conscious Fed Mice
A model was developed to examine the effect of 5-HT4 receptor antagonists on large bowel motility (faecal pellet output, FPO) and fluid secretion (pellet wet/dry weight) during `fed` conditions. The antagonists are studied in normal mice (to determine adverse effects, eg constipation)and in mice with functional diarrhoea caused by 5-HTP [Banner S E, Smith M I, Bywater D and Sanger G J (1993), Br J Pharmacol, 110, 17 P, and Banner S E, Smith M I and Sanger G J (1993) Br J Pharmacol; 110, 135 P]. Faecal pellets were collected at 10 min intervals so that their number and wet/dry weights could be determined.

5-HT4 receptor = 5-HT4 receptor (Cavia porcellus, UniProt O70528); experiment: Guinea pig colon: 5-HT-evoked contraction of longitudinal muscle-myenteric plexus preparations
Experimental: In some experiments, this tissue was dosed alternately with an approximately equi-effective concentration of the nicotine receptor stimulant, dimethylphenylpiperazinium (DMPP).

piglet hippocampal 5-HT4 receptors, sequence (Q6Q253 1-402): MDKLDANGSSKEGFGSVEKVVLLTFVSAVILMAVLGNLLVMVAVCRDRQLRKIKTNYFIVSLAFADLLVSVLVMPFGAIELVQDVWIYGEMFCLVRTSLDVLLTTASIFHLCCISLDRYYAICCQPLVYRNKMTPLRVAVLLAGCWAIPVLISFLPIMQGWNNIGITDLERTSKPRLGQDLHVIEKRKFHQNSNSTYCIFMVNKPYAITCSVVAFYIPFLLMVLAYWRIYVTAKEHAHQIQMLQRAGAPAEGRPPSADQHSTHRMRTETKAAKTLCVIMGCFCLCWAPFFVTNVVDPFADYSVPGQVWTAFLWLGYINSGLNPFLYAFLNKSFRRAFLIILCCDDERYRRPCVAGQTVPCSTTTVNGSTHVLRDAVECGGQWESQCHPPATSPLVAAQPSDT
5-HT4 receptor, sequence (O70528 whole entry): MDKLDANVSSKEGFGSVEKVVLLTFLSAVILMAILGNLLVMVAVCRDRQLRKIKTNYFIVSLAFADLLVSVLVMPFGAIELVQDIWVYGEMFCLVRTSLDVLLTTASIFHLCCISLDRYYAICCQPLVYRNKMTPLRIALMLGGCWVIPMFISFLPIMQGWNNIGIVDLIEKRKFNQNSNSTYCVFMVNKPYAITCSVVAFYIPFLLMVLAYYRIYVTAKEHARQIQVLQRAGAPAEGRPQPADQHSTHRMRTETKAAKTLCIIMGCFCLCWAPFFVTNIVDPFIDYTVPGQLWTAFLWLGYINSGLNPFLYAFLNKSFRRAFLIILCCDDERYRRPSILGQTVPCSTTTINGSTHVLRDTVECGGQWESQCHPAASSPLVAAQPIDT

SMILES: NCCc1c[nH]c2ccc(O)cc12 [5-HT, 5-hydroxytryptamine]
- pKi [1]: 6.6±0.1

SMILES: NC(Cc1c[nH]c2ccc(O)cc12)C(=O)O (stereo not drawn) [5-HTP, reference compound]
- effect of 5-HTP on FPO ([2]; 10 mgkg^-1 s.c.): increased FPO above control levels
- time of maximum effect of 5-HTP ([2]; 10 mgkg^-1 s.c.): 20 min
- effect of 5-HTP on faecal output ([2]; higher doses than 10 mg kg^-1 s.c.): evoked watery diarrhoea and unformed faecal output

SMILES: CCCCN1CCC(COC(=O)c2c3n(c4ccccc24)CCCO3)CC1 [E1, (1-^n Butyl-4-piperidyl)methyl-3,4-dihydro-2 H-[1,3]oxazino[3,2-a]indole-10-Carboxylate]
- 5-HT4 receptor antagonist activity (in words) (5-HT4 receptor; Y is O): particularly good activity

SMILES: O=C(OCC1CCN2CCCCC2C1)c1c2n(c3ccccc13)CCCO2 (stereo not drawn) [E2, eq-Quinolizidin-2-ylmethyl-3,4-dihydro-2 H-[1,3]oxazino[3,2-a]indole-10-Carboxylate]
- 5-HT4 receptor antagonist activity (in words) (5-HT4 receptor; Y is O): particularly good activity

SMILES: CCCCN1CCC(CNC(=O)c2c3n(c4ccccc24)CCCO3)CC1 [E3, N-[(1-^n Butyl-4-piperidyl)methyl]-3,4-dihydro-2 H-[1,3]oxazino[3,2-a]indole-10-Carboxamide]
- 5-HT4 receptor antagonist activity (in words) (5-HT4 receptor; Y is NH): particularly good activity

SMILES: O=C(OCCN1CCCCC1)c1c2n(c3ccccc13)CCCO2 [E4, 2-(1-Piperidyl)ethyl 3,4-dihydro-2 H-[1,3]oxazino[3,2-a]indole-10-Carboxylate]
- 5-HT4 receptor antagonist activity (in words) (5-HT4 receptor; Y is O): particularly good activity

SMILES: CCCCN1CCC(COC(=O)c2c3n(c4ccccc24)CCO3)CC1 [E6, (1-^n Butyl-4-piperidyl)methyl-2,3-dihydrooxazolo[3,2-a]indole-9-Carboxylate]
- 5-HT4 receptor antagonist activity (in words) (5-HT4 receptor; Y is O): particularly good activity

SMILES: CCCCN1CCC(COC(=O)c2c3n(c4ccccc24)CCCS3)CC1 [E8, (1-^n Butyl-4-piperidyl)methyl-3,4-dihydro-2 H-[1,3]thiazino[3,2-a]indole-10-Carboxylate]
- 5-HT4 receptor antagonist activity (in words) (5-HT4 receptor; Y is O): particularly good activity

SMILES: O=C(OCC1CCN(Cc2ccccc2)CC1)c1c2n(c3ccccc13)CCCO2 [E15, (1-Benzyl-4-piperidyl)methyl-3,4-dihydro-2 H-[1,3]oxazino[3,2-a]indole-10-Carboxylate]
- 5-HT4 receptor antagonist activity (in words) (5-HT4 receptor; Y is O): particularly good activity

SMILES: O=C(NCC1CCN(Cc2ccccc2)CC1)c1c2n(c3ccccc13)CCCO2 [E20, N-[(1-Benzyl-4-piperidyl)methy] 3,4-dihydro-2 H-[1,3]oxazino[3,2-a]indole-10-Carboxamide]
- 5-HT4 receptor antagonist activity (in words) (5-HT4 receptor; Y is NH): particularly good activity

SMILES: O=C(NCC1CCN(CC2CCCCC2)CC1)c1c2n(c3ccccc13)CCCO2 [E23, N-[(1-Cyclohexylmethyl-4-piperidyl)methyl] 3,4-dihydro-2 H-[1,3]oxazino[3,2-a]indole-10-Carboxamide]
- 5-HT4 receptor antagonist activity (in words) (5-HT4 receptor; Y is NH): particularly good activity

SMILES: CCCCN1CCC(COC(=O)c2c3n(c4ccc(F)cc24)CCCO3)CC1 [E27, (1-^n Butyl-4-piperidyl)methyl 8-fluoro-3,4-dihydro-2 H-[1,3]oxazino[3,2-a]indole-10-Carboxylate]
- 5-HT4 receptor antagonist activity (in words) (5-HT4 receptor; Y is O): particularly good activity

SMILES: CCCCN1CCC(CNC(=O)c2c3n(c4ccc(F)cc24)CCCO3)CC1 [E28, N-[(1-^n Butyl-4-piperidyl)methyl] 8-fluoro-3,4-dihydro-2 H-[1,3]oxazino[3,2-a]indole-10-Carboxamide]
- 5-HT4 receptor antagonist activity (in words) (5-HT4 receptor; Y is NH): particularly good activity

SMILES: O=C(NCC1CCN(CCCOc2ccccc2)CC1)c1c2n(c3ccccc13)CCCO2 [E47, N-[(1-(3-Phenoxypropyl)-4-piperidinyl)methyl] 3,4-dihydro-2 H-[1,3]oxazino[3,2-a]indole-10-Carboxamide]
- 5-HT4 receptor antagonist activity (in words) (5-HT4 receptor; Y is NH): particularly good activity

SMILES: CCCCN1CCC(COC(=O)c2cc(I)c(N)c3c2OCCO3)CC1 [SB-207710]
- Bmax ([1]; piglet hippocampal membranes, n=4): 16±3 fmol/mg protein

SMILES: CN1C2CCCC1CC(NC(=O)c1nn(C)c3ccccc13)C2 (stereo not drawn) [granisetron]
- pKi [1]: below 5
